Like-named read-outs stand apart in the source and are kept apart here. Where a SMILES comes first, the peptide text is derived from it.
Legend:
[1] = system: HELA cells (Acc57); test: Cytotoxicity assay (MTT reduction), HELA cells; type: cell-based; details: Hela cells
How it was run: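 HeLa cells were grown for 24 h, then exposed to peptides at 12.5, 25 and 50 μM in triplicate for 48 h at 37 °C. MTT reduction was read at 595 nm and growth % calculated relative to time-zero wells. LC50 interpolated by linear trend at −50% growth, GI50 at 50%.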

[2] = system: human red blood cells (hRBC); test: Hemolysis
[3] = biological target: Trypsin, from human pancreas (Homo sapiens, UniProt P07477); test: Enzymatic assay, trypsin; details: at 100 μM
[4] = biological target: T1, Chymase, from human skin (Homo sapiens, UniProt P23946); test: Enzymatic assay, chymase
T1 sequence (P23946 22-247): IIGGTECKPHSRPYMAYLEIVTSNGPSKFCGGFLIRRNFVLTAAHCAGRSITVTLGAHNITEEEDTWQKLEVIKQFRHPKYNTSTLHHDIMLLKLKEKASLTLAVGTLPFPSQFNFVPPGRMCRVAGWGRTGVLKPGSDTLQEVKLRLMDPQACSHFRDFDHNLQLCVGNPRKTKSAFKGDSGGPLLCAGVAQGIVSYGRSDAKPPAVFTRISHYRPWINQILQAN

[5] = biological target: T2, Elastase from human neutrophils (Homo sapiens, UniProt P08246); test: Enzymatic assay, elastase
T2 sequence (P08246 30-267): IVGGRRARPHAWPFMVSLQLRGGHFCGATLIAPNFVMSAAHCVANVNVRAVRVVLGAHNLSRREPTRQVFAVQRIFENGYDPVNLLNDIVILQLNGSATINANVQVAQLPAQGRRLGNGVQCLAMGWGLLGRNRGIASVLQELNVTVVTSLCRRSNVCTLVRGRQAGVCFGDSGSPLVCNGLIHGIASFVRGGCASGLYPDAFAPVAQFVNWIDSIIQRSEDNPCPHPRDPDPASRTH

[6] = biological target: T3, CathepsinG, from human neutrophils (Homo sapiens, UniProt P08311); test: Enzymatic assay, cathepsin G
T3 sequence (P08311 21-244): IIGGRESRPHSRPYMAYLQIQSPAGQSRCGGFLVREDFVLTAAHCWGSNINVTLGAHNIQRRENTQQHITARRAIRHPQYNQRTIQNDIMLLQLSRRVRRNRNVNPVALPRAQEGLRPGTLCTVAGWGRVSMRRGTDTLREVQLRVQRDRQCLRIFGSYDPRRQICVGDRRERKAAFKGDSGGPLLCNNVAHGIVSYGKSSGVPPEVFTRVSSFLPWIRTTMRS

[7] = biological target: Chymotrypsin, from human pancreas (Homo sapiens, UniProt P17538); test: Enzymatic assay, chymotrypsin; details: at 100 μM
Sequence of Chymotrypsin, from human pancreas (P17538 19-263): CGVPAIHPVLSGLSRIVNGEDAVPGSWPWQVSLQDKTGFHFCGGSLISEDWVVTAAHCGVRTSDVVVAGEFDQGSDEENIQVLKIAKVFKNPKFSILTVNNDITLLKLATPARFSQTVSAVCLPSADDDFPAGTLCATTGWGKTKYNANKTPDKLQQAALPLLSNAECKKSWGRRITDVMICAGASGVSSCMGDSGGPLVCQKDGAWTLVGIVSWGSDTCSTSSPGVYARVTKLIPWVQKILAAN

[8] = biological target: Thrombin, from Human Plasma (Homo sapiens, UniProt P00734); test: Enzymatic assay, thrombin
[9] = system: Tryptase, from human lung; test: Enzymatic assay, tryptase; details: at 100 μM
[10] = biological target: Urokinase from human urine (Homo sapiens, UniProt P00749); test: Enzymatic assay, urokinase
[11] = biological target: Coagulation Factor Xa, from uman plasma (Homo sapiens, UniProt P00742); test: Enzymatic assay, coagulation factor Xa
Sequence of Coagulation Factor Xa, from uman plasma (P00742 235-488 limits assumed): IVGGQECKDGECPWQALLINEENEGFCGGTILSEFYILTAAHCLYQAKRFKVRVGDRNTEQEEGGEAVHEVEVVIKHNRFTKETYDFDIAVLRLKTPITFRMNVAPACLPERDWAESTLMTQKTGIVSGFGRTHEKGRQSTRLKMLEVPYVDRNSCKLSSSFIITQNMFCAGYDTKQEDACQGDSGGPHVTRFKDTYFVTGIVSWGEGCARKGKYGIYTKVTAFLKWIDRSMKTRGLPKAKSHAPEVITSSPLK
Sequence of Coagulation Factor Xa, from uman plasma (P00742 41-179 limits assumed): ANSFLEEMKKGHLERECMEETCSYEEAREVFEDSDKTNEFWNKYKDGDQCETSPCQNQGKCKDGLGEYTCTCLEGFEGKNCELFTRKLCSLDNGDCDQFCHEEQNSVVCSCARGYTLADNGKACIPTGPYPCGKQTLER

Structure (SMILES)	Cytotoxicity LC50/GI50 Hela cells [1] [µM]	Hemolysis at 100 μM % [2] [%]	Trypsin at 100 μM % [3] [%]	Chymase at 100 μM % [4] [%]	IC50 ([5]; read-out: Elastase IC50) [µM]	IC50 ([6]; read-out: Cathepsin G IC50) [µM]	Chymotrypsin at 100 μM % [7] [%]	Thrombin at 100 μM % [8] [%]	Tryptase at 100 μM % [9] [%]	Urokinase at 100 μM % [10] [%]	FXa at 100 μM % [11] [%]	IC50 ([5]; Elastase IC50) [µM]	IC50 ([6]; Cathepsin G IC50) [µM]
CCCC[C@@H]1NC(=O)[C@@H]2CCCN2C(=O)[C@@H]2CCCN2C(=O)[C@H](CC(=O)O)NC(=O)[C@H](CO)NC(=O)[C@H](CCCCN)NC(=O)[C@H]([C@@H](C)O)NC(=O)[C@@H]2CSSC[C@H](NC1=O)C(=O)N[C@@H](CO)C(=O)N1CCC[C@@H]1C(=O)N1CCC[C@H]1C(=O)N[C@@H](Cc1ccccc1)C(=O)N2 [Ex. 53] (HELM PEPTIDE1{F.C.T.K.S.D.P.P.[Nle].C.S.[dP].P}$PEPTIDE1,PEPTIDE1,2:R3-10:R3|PEPTIDE1,PEPTIDE1,1:R1-13:R2$$$V2.0)	63	0	95	12.7	> 100	0.056	54	–	–	–	–	–	–
CCCC[C@@H]1NC(=O)[C@@H]2CCCN2C(=O)[C@@H]2CCCN2C(=O)[C@H](CC(=O)O)NC(=O)[C@H](CO)NC(=O)[C@H](CCCCN)NC(=O)[C@H]([C@@H](C)O)NC(=O)[C@@H]2CSSC[C@H](NC1=O)C(=O)N[C@@H](CCCNC(=N)N)C(=O)N1CCC[C@@H]1C(=O)N1CCC[C@H]1C(=O)N[C@@H]([C@@H](C)CC)C(=O)N2 [Ex. 57] (HELM PEPTIDE1{I.C.T.K.S.D.P.P.[Nle].C.R.[dP].P}$PEPTIDE1,PEPTIDE1,2:R3-10:R3|PEPTIDE1,PEPTIDE1,1:R1-13:R2$$$V2.0)	–	0	94	26.9	> 100	0.041	0	11	82.2	4	32	–	–
CCCC[C@@H]1NC(=O)[C@@H]2CCCN2C(=O)[C@@H]2CCCN2C(=O)[C@H](CC(=O)O)NC(=O)[C@H](CO)NC(=O)[C@H](CCCCN)NC(=O)[C@H]([C@@H](C)O)NC(=O)[C@@H]2CSSC[C@H](NC1=O)C(=O)N[C@@H](CO)C(=O)N1CCC[C@@H]1C(=O)N1CCC[C@H]1C(=O)N[C@@H](Cc1ccccc1)C(=O)N2 [Ex. 15] (HELM PEPTIDE1{F.C.T.K.S.D.P.P.[Nle].C.S.[dP].P}$PEPTIDE1,PEPTIDE1,2:R3-10:R3|PEPTIDE1,PEPTIDE1,1:R1-13:R2$$$V2.0)	100	0	95.0	12.7	–	–	54.2	–	–	–	–	> 100	0.056
C[C@@H](O)[C@@H]1NC(=O)[C@@H]2CSSC[C@H](NC(=O)[C@H](Cc3ccc(O)cc3)NC(=O)[C@@H]3CCCN3C(=O)[C@@H]3CCCN3C(=O)[C@H](CC(=O)O)NC(=O)[C@H](CO)NC(=O)[C@H](CCCCN)NC1=O)C(=O)N[C@@H](Cc1ccc(O)cc1)C(=O)N1CCC[C@@H]1C(=O)N1CCC[C@H]1C(=O)N[C@@H](C1CCCCC1)C(=O)N2 [Ex. 65] (HELM PEPTIDE1{[O=C([C@@H](N[*:1])C1CCCCC1)[*:2]].C.T.K.S.D.P.P.Y.C.Y.[dP].P}$PEPTIDE1,PEPTIDE1,2:R3-10:R3|PEPTIDE1,PEPTIDE1,1:R1-13:R2$$$V2.0)	84	0	–	–	–	–	–	–	57	1	–	–	0.047
CC[C@H](C)[C@@H]1NC(=O)[C@@H]2CCCN2C(=O)[C@H]2CCCN2C(=O)[C@H](CCCNC(=N)N)NC(=O)[C@@H]2CSSC[C@H](NC1=O)C(=O)N[C@@H]([C@@H](C)O)C(=O)N[C@@H](CCCCN)C(=O)N[C@@H](CO)C(=O)N[C@@H](CC(=O)O)C(=O)N1CCC[C@H]1C(=O)N1CCC[C@H]1C(=O)N[C@@H](Cc1ccc(O)cc1)C(=O)N2 [Ex. 18] (HELM PEPTIDE1{I.C.T.K.S.D.P.P.Y.C.R.[dP].P}$PEPTIDE1,PEPTIDE1,2:R3-10:R3|PEPTIDE1,PEPTIDE1,1:R1-13:R2$$$V2.0)	100	0	84	32.5	–	–	25	0	88.3	–	–	> 100	0.047
CC[C@H](C)[C@@H]1NC(=O)[C@@H]2CCCN2C(=O)[C@H]2CCCN2C(=O)[C@H](CCCNC(=N)N)NC(=O)[C@@H]2CSSC[C@H](NC1=O)C(=O)N[C@@H]([C@@H](C)O)C(=O)N[C@@H](CCCCN)C(=O)N[C@@H](CO)C(=O)N[C@@H](CC(=O)O)C(=O)N1CCC[C@H]1C(=O)N1CCC[C@H]1C(=O)N[C@@H](CCC(N)=O)C(=O)N2 [Ex. 55] (HELM PEPTIDE1{I.C.T.K.S.D.P.P.Q.C.R.[dP].P}$PEPTIDE1,PEPTIDE1,2:R3-10:R3|PEPTIDE1,PEPTIDE1,1:R1-13:R2$$$V2.0)	94	0.1	90	27.6	> 100	0.055	16	–	90.4	–	–	–	–
CC[C@H](C)[C@@H]1NC(=O)[C@@H]2CCCN2C(=O)[C@@H]2CCCN2C(=O)[C@H](CC(=O)O)NC(=O)[C@H](CO)NC(=O)[C@H](CCCCN)NC(=O)[C@H]([C@@H](C)O)NC(=O)[C@@H]2CSSC[C@H](NC1=O)C(=O)N[C@@H](Cc1ccc(O)cc1)C(=O)N1CCC[C@@H]1C(=O)N1CCC[C@H]1C(=O)N[C@@H](Cc1ccccc1)C(=O)N2 [Ex. 5] (HELM PEPTIDE1{F.C.T.K.S.D.P.P.I.C.Y.[dP].P}$PEPTIDE1,PEPTIDE1,2:R3-10:R3|PEPTIDE1,PEPTIDE1,1:R1-13:R2$$$V2.0)	–	0	92	0	–	–	3	0.5	74	5.7	0.2	> 100	0.056
CC[C@H](C)[C@@H]1NC(=O)[C@@H]2CCCN2C(=O)[C@H]2CCCN2C(=O)[C@H](CCCNC(=N)N)NC(=O)[C@@H]2CSSC[C@H](NC1=O)C(=O)N[C@@H]([C@@H](C)O)C(=O)N[C@@H](CCCCN)C(=O)N[C@@H](CO)C(=O)N[C@@H](CC(=O)O)C(=O)N1CCC[C@H]1C(=O)N1CCC[C@H]1C(=O)N[C@@H](CCC(N)=O)C(=O)N2 [Ex. 17] (HELM PEPTIDE1{I.C.T.K.S.D.P.P.Q.C.R.[dP].P}$PEPTIDE1,PEPTIDE1,2:R3-10:R3|PEPTIDE1,PEPTIDE1,1:R1-13:R2$$$V2.0)	94	0.1	90.0	27.6	–	–	16	0	90.4	–	–	> 100	0.055
